The source of these data is patent publication EP3118202A1, “DIHYDROPYRIDOPYRROLE DERIVATIVES AS TAU-PET-LIGANDS” (AC Immune S.A., priority 2015, dated 2017).

pIC50: −log10 of the molar value.

Assay [1] has as its system tau tangles/Aβ plaques on AD brain sections. Nature of the assay: Direct staining of human Alzheimer's disease brain sections (Assay 1, fluorescence based assay). The settings on record: for Direct staining of tau tangles/Aβ plaques on AD brain sections at 100 µM: 100 µM in 50% ethanol in water, 20 min, room temperature, frozen amygdala sections, Braak stage V-VI; for Direct staining of tau tangles/Aβ plaques on AD brain sections at 100 µM: structure stained: structure (tangles or plaques) that was stained. Type of assay: binding. Set-up: key to Direct staining of tau tangles/Aβ plaques on AD brain sections at 100 µM: - (No); +++ (strong); ++ (good); + (weak). On the procedure:
Assay 1 (Fluorescence based assay):
Direct binding of compounds of this invention to human Alzheimer's disease brain sections
Frozen sections with a thickness of […] from the amygdala of donors diagnosed with Braak stage V-VI Alzheimer's Disease (Braak, H.; Braak, E. Acta Neuropathol., 1991, 82, 239-259), were purchased from a commercial provider (Tissue Solutions) and kept at -80°C until use.
Direct staining of human Alzheimer's disease brain sections
Brain sections were encircled with pap pen liquid blocker to reduce the volume of solution for the different incubations. Sections were fixed for 15 min at 4°C with 4% paraformaldehyde and washed three times 5 minutes with PBS at room temperature. Test compounds were incubated on the sections at 100 µM in 50% ethanol in water for 20 min at room temperature in the dark and then washed three times 5 minutes with PBS. To reduce the auto-fluorescence of the tissue, the sections were incubated in a solution of 0.1% Sudan Black (Sigma 199664) in 70% ethanol for 15 min at room temperature in the dark, washed four times for 5 minutes with PBS, and mounted using ProLong Gold Antifade reagent (Invitrogen P36930). Sections were then analyzed on the Nikon Eclipse Ti microscope to detect staining and imaged using Nikon DS-Fi2 camera and NIS-Element AR4.13.1 software.

The target of assay [2] is T1, MAO-B human - recombinant (Homo sapiens, UniProt P27338).
T1 construct: purchased Sigma-Aldrich M7441
T1 sequence (P27338 1-520): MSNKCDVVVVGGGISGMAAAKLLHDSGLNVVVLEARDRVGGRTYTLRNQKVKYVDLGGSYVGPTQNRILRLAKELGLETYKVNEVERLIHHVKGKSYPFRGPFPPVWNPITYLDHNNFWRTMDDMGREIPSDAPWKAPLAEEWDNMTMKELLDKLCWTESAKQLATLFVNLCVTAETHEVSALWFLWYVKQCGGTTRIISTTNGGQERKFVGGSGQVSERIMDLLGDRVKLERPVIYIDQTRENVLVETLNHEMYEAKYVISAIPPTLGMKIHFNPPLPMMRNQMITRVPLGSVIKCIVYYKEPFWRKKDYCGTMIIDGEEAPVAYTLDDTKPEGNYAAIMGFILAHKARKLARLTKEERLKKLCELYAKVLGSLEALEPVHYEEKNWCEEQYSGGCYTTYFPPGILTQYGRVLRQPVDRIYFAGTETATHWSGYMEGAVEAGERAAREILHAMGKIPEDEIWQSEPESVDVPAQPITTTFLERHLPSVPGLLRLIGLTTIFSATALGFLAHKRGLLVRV
Nature of the assay: MAO-B assay (MAO-Glo Assay). Type of assay: biochemical. The settings on record: MAO substrate 4 µM; 1 hour at room temperature; read-out: MAO B binding. On the procedure:
Compounds were tested for their capacity to modulate MAO-B activity within the MAO-Glo™ Assay (Promega, Cat.# V1402). In each well of a 96-well plate, 12.5 µl of 4X MAO Substrate solution (end-concentration in assay: 4 µM) were mixed with 12.5 µl of a 4X solution of the corresponding test compound (end-concentrations ranged from 10 µM to 1.37 nM). In the absence of a test compound (i.e. to gauge the total MAO-B activity), the corresponding volume of MAO-B Reaction Buffer (100 mM HEPES (pH 7.5), 5% glycerol, 10% dimethyl sulphoxide) was added. To initiate the MAO reaction, 25 µl of 2X MAO-B enzyme solution (MAO-B human - recombinant, Sigma-Aldrich, Cat.# M7441; 1 µg MAO-B enzyme/25 µl MAO-B Reaction Buffer) were added per well and mixed briefly. For negative control reactions, 25µl of MAO-B Reaction Buffer were added. Thereafter the plate was incubated at room temperature for 1 hour, following which, 50 µl of reconstituted Luciferin Detection Reagent were added per well and mixed briefly. The plate was then incubated at room temperature for 20 minutes to generate and stabilize the luminescent signal. The luminescent signal was subsequently measured and recorded on the TopCountNXT™ luminescence counter (PerkinElmer). Data were analyzed and graphs were prepared using the Graphpad Prism 6 software.

Assay [3] deals with T2, MAO-A human - recombinant (Homo sapiens, UniProt P21397).
T2 construct: purchased Sigma-Aldrich M7316
T2 sequence (P21397 1-527): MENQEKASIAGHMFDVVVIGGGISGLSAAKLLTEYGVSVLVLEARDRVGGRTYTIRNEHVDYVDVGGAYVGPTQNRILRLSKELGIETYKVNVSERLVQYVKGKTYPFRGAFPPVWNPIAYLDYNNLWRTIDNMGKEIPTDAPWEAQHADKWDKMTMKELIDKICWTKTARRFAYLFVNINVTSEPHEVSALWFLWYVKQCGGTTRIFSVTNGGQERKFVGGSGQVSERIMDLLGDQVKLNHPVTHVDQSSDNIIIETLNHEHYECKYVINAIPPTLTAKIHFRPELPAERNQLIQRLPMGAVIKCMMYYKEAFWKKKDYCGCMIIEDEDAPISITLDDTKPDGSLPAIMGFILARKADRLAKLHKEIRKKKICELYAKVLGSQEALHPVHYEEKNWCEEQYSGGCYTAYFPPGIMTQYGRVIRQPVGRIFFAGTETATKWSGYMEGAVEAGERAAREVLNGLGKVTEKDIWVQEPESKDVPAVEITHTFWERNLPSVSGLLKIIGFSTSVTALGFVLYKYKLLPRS
Nature of the assay: Monoamine oxidase A (MAO-A) assay (MAO-Glo Assay). The settings on record: MAO substrate 40 µM; 1 hour at room temperature; read-out: MAO A binding. Type of assay: biochemical. On the procedure: Monoamine oxidase A (MAO-A) assay
Compounds were tested for their capacity to modulate MAO-A activity within the MAO-Glo™ Assay (Promega, Cat.# V1402). In each well of a 96-well plate, 12.5 µl of 4X MAO Substrate solution (end-concentration in assay: 40 µM) were mixed with 12.5 µl of a 4X solution of the corresponding test compound (end-concentrations ranged from 10 µM to 1.37 nM). In the absence of a test compound (i.e. to gauge the total MAO-A activity), the corresponding volume of MAO Reaction Buffer (100 mM HEPES (pH 7.5), 5% glycerol) was added. To initiate the MAO reaction, 25 µl of 2X MAO-A enzyme solution (MAO-A human - recombinant, Sigma-Aldrich, Cat.# M7316; 1 µg MAO-A enzyme/25 µl MAO Reaction Buffer) were added per well and mixed briefly. For negative control reactions, 25µl of MAO Reaction Buffer were added. Thereafter the plate was incubated at room temperature for 1 hour, following which, 50 µl of reconstituted Luciferin Detection Reagent were added per well and mixed briefly. The plate was then incubated at room temperature for 20 minutes to generate and stabilize the luminescent signal. The luminescent signal was subsequently measured and recorded on the TopCountNXT™ luminescence counter (PerkinElmer). Data were analyzed and graphs were prepared using the Graphpad Prism 6 software.

Regarding `CCn1c2ccncc2c2ccc(N3CCC(OCCF)CC3)nc21` [Example 1], in assay [1], the “Direct staining of tau tangles/Aβ plaques on AD brain sections at 100 µM” value was “-”.

Take `CN(CCF)C1CCN(c2ccc3c4cnccc4n(C)c3n2)CC1` [Example 3]: the “Direct staining of tau tangles/Aβ plaques on AD brain sections at 100 µM” value in assay [1] was “-”.

As to `Cn1c2ccncc2c2ccc(N3CCC(OCC(O)CF)CC3)nc21` (stereo not drawn) [Example 5], the pIC50 in assay [2] is under 6.00. In assay [1], the “Direct staining of tau tangles/Aβ plaques on AD brain sections at 100 µM” value is on record as “++” and the “Direct staining of tau tangles/Aβ plaques on AD brain sections at 100 µM: structure stained” value (“Direct staining … structure stained” below) is recorded as “(tangles)”. Moreover, in assay [3], the pIC50 is 6.37.

Take `CCn1c2ccncc2c2ccc(N3CCC(OCC(O)CF)CC3)nc21` (stereo not drawn) [Example 6]: in assay [1], the “Direct staining of tau tangles/Aβ plaques on AD brain sections at 100 µM” value is reported as “++” and the “Direct staining … structure stained” value is “(tangles)”.

`OC(CF)COC1CCN(c2ccc3c(n2)[nH]c2ccncc23)CC1` (stereo not drawn) [Example 10]: the results for the pIC50 in assay [2] and in assay [3] were under 6.00 and 6.10, respectively.

Take `Cn1c2ccncc2c2ccc(N3CCN(CC(O)CF)CC3)nc21` (stereo not drawn) [Example 12]: the pIC50 in assay [2] is under 6.00. Moreover, in assay [1], the “Direct staining of tau tangles/Aβ plaques on AD brain sections at 100 µM” value was “+” and the “Direct staining … structure stained” value is “(tangles)”. Also, in assay [3], the pIC50 is 6.03.

Consider `Cn1c2ccncc2c2ccc(N3CC4CC(C3)C4OCCF)nc21` (stereo not drawn) [Example 13], for which, in assay [1], the “Direct staining of tau tangles/Aβ plaques on AD brain sections at 100 µM” value is on record as “++” and the “Direct staining … structure stained” value is listed as “(tangles)”.

Consider `Cn1c2ccncc2c2ccc(N3CCC(COCCF)CC3)nc21` [Example 14], for which, in assay [1], the “Direct staining of tau tangles/Aβ plaques on AD brain sections at 100 µM” value was “-”.

Turning to `Cn1c2ccncc2c2ccc(N3CCOC(CCF)C3)nc21` (stereo not drawn) [Example 16], the “Direct staining of tau tangles/Aβ plaques on AD brain sections at 100 µM” value in assay [1] is reported as “-”.
